According to patent publication US8906904B2, “Alkoxy pyrazoles as soluble guanylate cyclase activators” (Boehringer Ingelheim International GmbH, priority 2012, dated 2014):
Values after ≈ are worked out from the molar mass of the structure shown.

Experiment: Assessment of solubility (McIlvaine buffers, 24 h shake, UPLC-UV)
Assay type: physicochemical
Details: kinetic from dmso stock
Procedure: Solubility is measured by the following method.
100 uL, 10 mM DMSO stock solution of each compound is prepared in a 96 well plate format. The experiment is done in single determination at 3 pH values (2.2, 4.5 and 6.8). For each pH and one reference, 40 uL of each compound is needed.
McIlvaine pH 2.2: To 2.076 g citric acid monohydrate and 0.043 g Na2HPO4×2H2O add 100 ml deionized water
McIlvaine pH 4.5: To 1.166 g citric acid monohydrate and 1.585 g Na2HPO4×2H2O add 100 ml deionized water
McIlvaine pH 6.8: To 0.476 g citric acid monohydrate and 2.753 g Na2HPO4×2H2O add 100 ml deionized water
With a suitable liquid handling device (Multipette® or a liquid handler) 390 uL of each buffer solution and 10 uL of compound is added to each well of a 96 deep well plate. The plates are covered firmly and shaken for 24 h on an over head shaker (at 54 RPM) at room temperature. The DMSO content in the final buffer is 2.5% v/v.
After 24 h the plates are centrifuged to remove droplets on the lid before opening (for ˜5 min at 2500 RPM).
The filtration is done under vacuum with Millipore 96 well filter plate. Filtrate is collected in a deep well plate and transferred to a suitable plate for UPLC analysis.
The reference plate is prepared by adding 10 uL of compound to 390 uL of 50:50 acetonitrile/water in a 96 deep well plate and transferred to a suitable plate for UPLC analysis. Wells are checked visually for precipitation, any presence noted under comments in reported results.
The samples are measured with UPLC-UV using the chromatographic method described below.
Waters Empower®2 software is used for generating Sample Sets (according to the plate layout), Sample Set Methods and Instrument Methods.
One Sample Set comprises the methods for three 96 well plates (one reference plate and two sample plates, and includes one Sample Set Method and one Instrument Method).
3. Data Processing and Analysis
The UV chromatograms collected at 254 nm are integrated and processed.
It is assumed that the compound is completely dissolved in the reference solution (50:50 acetonitrile/water)

SMILES | solubility at 24 h (pH 2.2, aqueous buffer) | solubility at 24 h (pH 4.5, aqueous buffer) | solubility at 24 h (pH 6.8, aqueous buffer)
COc1c(C(=O)O)cnn1-c1cccc(-c2cccc(Cl)c2OCc2ccc3c(c2)CCN(C2COC2)C3)n1 [Compound 7] | 110 µg/mL (≈ 201 µM) | 77 µg/mL (≈ 141 µM) | 91 µg/mL (≈ 166 µM)
COc1c(C(=O)O)cnn1-c1cccc(-c2cccc(C)c2OCc2ccc3c(c2)CCN(C2COC2)C3)n1 [Compound 8] | 110 µg/mL (≈ 209 µM) | 82 µg/mL (≈ 156 µM) | 98 µg/mL (≈ 186 µM)
COc1c(C(=O)O)cnn1-c1cccc(-c2cccc(C(F)(F)F)c2OCc2ccc3c(c2)CCN(C2COC2)C3)n1 [Compound 9] | 94 µg/mL (≈ 162 µM) | 70 µg/mL (≈ 121 µM) | 82 µg/mL (≈ 141 µM)
COc1c(C(=O)O)cnn1-c1cccc(-c2cccc(C)c2OCc2ccc3c(c2)C(C)(C)CN(C2COC2)C3)n1 [Compound 10] | 94 µg/mL (≈ 169 µM) | 50 µg/mL (≈ 90.1 µM) | 73 µg/mL (≈ 132 µM)
COc1c(C(=O)O)cnn1-c1cccc(-c2cccc(C)c2OCc2ccc3c(c2)CCN(CC(F)(F)F)C3)n1 [Compound 11, 5-methoxy-1-(6-{3-methyl-2-[2-(2,2,2-trifluoro-ethyl)-1,2,3,4-tetrahydro-isoquinolin-6-ylmethoxy]-phenyl}-pyridin-2-yl)-1H-pyrazole-4-carboxylic acid] | 23 µg/mL (≈ 41.6 µM) | < 0.1 µg/mL | 80 µg/mL (≈ 145 µM)
COc1c(C(=O)O)cnn1-c1cccc(-c2cccc(C)c2OCc2ccc3c(c2)CCN(CC2(C)COC2)C3)n1 [Compound 12] | 110 µg/mL (≈ 198 µM) | 90 µg/mL (≈ 162 µM) | 92 µg/mL (≈ 166 µM)
COc1c(C(=O)O)cnn1-c1cccc(-c2cccc(C)c2OCc2ccc3c(c2)CCN(C(C)C)C3)n1 [Compound 13] | 100 µg/mL (≈ 195 µM) | 84 µg/mL (≈ 164 µM) | 87 µg/mL (≈ 170 µM)
COc1c(C(=O)O)cnn1-c1cccc(-c2cccc(C)c2OCc2ccc3c(c2)CCN(CC(C)(C)C)C3)n1 [Compound 14] | 110 µg/mL (≈ 203 µM) | 82 µg/mL (≈ 152 µM) | 76 µg/mL (≈ 141 µM)
CCOc1c(C(=O)O)cnn1-c1cccc(-c2cccc(C)c2OCc2ccc3c(c2)CCN(CC2CC(=O)N(C)C2)C3)n1 (stereo not drawn) [Compound 97, 5-ethoxy-1-(6-{3-methyl-2-[2-(1-methyl-5-oxo-pyrrolidin-3-ylmethyl)-1,2,3,4-tetrahydro-isoquinolin-6-ylmethoxy]-phenyl}-pyridin-2-yl)-1H-pyrazole-4-carboxylic acid] | 91 µg/mL (≈ 153 µM) | 72 µg/mL (≈ 121 µM) | 77 µg/mL (≈ 129 µM)
COc1c(C(=O)O)cnn1-c1cccc(-c2ccc(C)cc2OCc2ccc3c(c2)CCN(C2CCOCC2)C3)n1 [Compound 98] | 150 µg/mL (≈ 270 µM) | 110 µg/mL (≈ 198 µM) | 99 µg/mL (≈ 178 µM)
COc1c(C(=O)O)cnn1-c1cccc(-c2ccc(C)cc2OCc2ccc3c(c2C)CCN(C2CCOCC2)C3)n1 [Compound 99] | 150 µg/mL (≈ 264 µM) | 120 µg/mL (≈ 211 µM) | 110 µg/mL (≈ 193 µM)
COc1c(C(=O)O)cnn1-c1cccc(-c2cccc(C)c2OCc2ccc3c(c2)CCCN(C2CCOCC2)C3)n1 [Compound 100] | 110 µg/mL (≈ 193 µM) | 88 µg/mL (≈ 155 µM) | 97 µg/mL (≈ 171 µM)
CCOc1c(C(=O)O)cnn1-c1cccc(-c2cccc(C)c2OCc2ccc3c(c2)CCN(CC2CCCO2)C3)n1 (stereo not drawn) [Compound 101, 5-ethoxy-1-(6-{3-methyl-2-[2-(tetrahydro-furan-2-ylmethyl)-1,2,3,4-tetrahydro-isoquinolin-6-ylmethoxy]-phenyl}-pyridin-2-yl)-1H-pyrazole-4-carboxylic acid] | 90 µg/mL (≈ 158 µM) | 73 µg/mL (≈ 128 µM) | 74 µg/mL (≈ 130 µM)
COc1c(C(=O)O)cnn1-c1cccc(-c2cccc(C)c2OCc2ccc3c(c2)CCN([C@H]2CC[C@]4(CCCO4)CC2)C3)n1 [Compound 102] | 99 µg/mL (≈ 163 µM) | 81 µg/mL (≈ 133 µM) | 82 µg/mL (≈ 135 µM)
COc1c(C(=O)O)cnn1-c1cccc(-c2cccc(C)c2OCc2ccc3c(c2)CCN([C@H]2CC[C@@]4(CCCO4)CC2)C3)n1 [Compound 103] | 96 µg/mL (≈ 158 µM) | 78 µg/mL (≈ 128 µM) | 81 µg/mL (≈ 133 µM)
Cc1cccc(-c2cccc(-n3ncc(C(=O)O)c3OC(C)C)n2)c1OCc1ccc2c(c1C)CCN(C1CCOCC1)C2 [Compound 104] | 110 µg/mL (≈ 184 µM) | 93 µg/mL (≈ 156 µM) | 97 µg/mL (≈ 163 µM)

SMILES | solubility at 24 h (pH 2.2, aqueous buffer) | solubility at 24 h (pH 4.5, aqueous buffer) | solubility at 24 h (pH 6.8, aqueous buffer)
COc1c(C(=O)O)cnn1-c1cccc(-c2cccc(C)c2OCc2ccc3c(c2C)CCN([C@H]2CCOC2)C3)n1 [Compound 105] | 93 µg/mL (≈ 168 µM) | 72 µg/mL (≈ 130 µM) | 75 µg/mL (≈ 135 µM)
COc1c(C(=O)O)cnn1-c1cccc(-c2cccc(C)c2OCc2ccc3c(c2C)CCN([C@@H]2CCOC2)C3)n1 [Compound 106] | 88 µg/mL (≈ 159 µM) | 69 µg/mL (≈ 124 µM) | 73 µg/mL (≈ 132 µM)
CCOc1c(C(=O)O)cnn1-c1cccc(-c2cccc(C)c2OCc2ccc3c(c2)CCN([C@H]2CCOC2)C3)n1 [Compound 110] | 130 µg/mL (≈ 234 µM) | 96 µg/mL (≈ 173 µM) | 120 µg/mL (≈ 216 µM)
Cc1cccc(-c2cccc(-n3ncc(C(=O)O)c3OC(C)C)n2)c1OCc1ccc2c(c1)CCN([C@H]1CCOC1)C2 [Compound 111] | 87 µg/mL (≈ 153 µM) | 69 µg/mL (≈ 121 µM) | 75 µg/mL (≈ 132 µM)
CCOc1c(C(=O)O)cnn1-c1cccc(-c2cccc(C)c2OCc2ccc3c(c2)CCN([C@@H]2CCOC2)C3)n1 [Compound 112] | 110 µg/mL (≈ 198 µM) | 78 µg/mL (≈ 141 µM) | 94 µg/mL (≈ 169 µM)
Cc1cccc(-c2cccc(-n3ncc(C(=O)O)c3OC(C)C)n2)c1OCc1ccc2c(c1)CCN([C@@H]1CCCOC1)C2 [Compound 113] | 94 µg/mL (≈ 161 µM) | 80 µg/mL (≈ 137 µM) | 84 µg/mL (≈ 144 µM)
CCOc1c(C(=O)O)cnn1-c1cccc(-c2cccc(C)c2OCc2ccc3c(c2C)CCN(C2CCOCC2)C3)n1 [Compound 114] | 120 µg/mL (≈ 206 µM) | 99 µg/mL (≈ 170 µM) | 100 µg/mL (≈ 172 µM)
Cc1cccc(-c2cccc(-n3ncc(C(=O)O)c3OC(C)C)n2)c1OCc1ccc2c(c1)CCN([C@H]1CCCOC1)C2 [Compound 115] | 89 µg/mL (≈ 153 µM) | 71 µg/mL (≈ 122 µM) | 43 µg/mL (≈ 73.8 µM)
Cc1cccc(-c2cccc(-n3ncc(C(=O)O)c3OC(C)C)n2)c1OCc1ccc2c(c1C)CCN([C@H]1CCCOC1)C2 [Compound 117] | 102 µg/mL (≈ 171 µM) | 82 µg/mL (≈ 137 µM) | 85 µg/mL (≈ 142 µM)
CCOc1c(C(=O)O)cnn1-c1cccc(-c2cccc(C)c2OCc2cc(C)c3c(c2)CN(C2CCOCC2)C3)n1 [Compound 118] | 110 µg/mL (≈ 193 µM) | 84 µg/mL (≈ 148 µM) | 92 µg/mL (≈ 162 µM)
CCOc1c(C(=O)O)cnn1-c1cccc(-c2cccc(C)c2OCc2ccc3c(c2C)CN(C2CCOCC2)C3)n1 [Compound 119] | 110 µg/mL (≈ 193 µM) | 89 µg/mL (≈ 157 µM) | 97 µg/mL (≈ 171 µM)
COc1c(C(=O)O)cnn1-c1cccc(-c2cccc(C)c2OCc2cc(C)c3c(c2C)CCN(C2CCOCC2)C3)n1 [Compound 120] | 110 µg/mL (≈ 189 µM) | 94 µg/mL (≈ 161 µM) | 97 µg/mL (≈ 166 µM)
COc1c(C(=O)O)cnn1-c1cccc(-c2cccc(C)c2OCc2cc3c(cc2C)CN(C2CCOCC2)CC3)n1 [Compound 121] | 110 µg/mL (≈ 193 µM) | 90 µg/mL (≈ 158 µM) | 93 µg/mL (≈ 164 µM)
COc1c(C(=O)O)cnn1-c1cccc(-c2cc(C)ccc2OCc2ccc3c(c2C)CCN(C2CCOCC2)C3)n1 [Compound 124] | 100 µg/mL (≈ 176 µM) | 8.6 µg/mL (≈ 15.1 µM) | 44 µg/mL (≈ 77.4 µM)
CCOc1c(C(=O)O)cnn1-c1cccc(-c2cccc(C)c2OCc2ccc3c(c2C)CCN([C@H]2CCOC2)C3)n1 [Compound 125] | 110 µg/mL (≈ 193 µM) | 76 µg/mL (≈ 134 µM) | 78 µg/mL (≈ 137 µM)
